No end group written: not given here.
What was measured:
trypsin [1] = test: SPR interaction with trypsin; type: binding; settings: for SPR binding to trypsin (in words): peptide immobilized on CM4 chip; for ka, association rate constant / kd, dissociation rate constant: protease 1 nM to 5 μM; for Kd: read-out: KD, dissociation constant
Method: (§1) The interaction of the peptides with serine proteinases (trypsin, α-chymotrypsin, human neutrophil elastase, pancreatic kallikrein and cathepsin G) was studied using the surface plasmon resonance (SPR) method. The peptides were immobilized on a CM4 sensor chip. […] Kinetic parameters were calculated at 25 °C. Obtained data indicated the formation of tight complexes and eliminated non-specific binding (Table 2).
(§2) The study of the interaction of serine proteinases with rHCIQ2c1 and rHCIQ4c7 was performed on SPR biosensor Biacore 3000 (GE Healthcare, USA) running under the program “Biacore 3000 Control Software v.1.0”. The evaluation of data was carried out using “Biacore Evaluation v.4.1”. Peptides were covalent immobilized on carboxymethylated surface of the Biacore CM4 sensor chip (GE Healthcare, USA) activated by EDC/NHS (N-hydroxysuccinimide/1-ethyl-3-(3-dimethylaminopropyl)carbodiimide hydrochloride) mixture by the injection of peptide solution (100 µg/ml) in 10 mM sodium acetate (pH 5.5) during 10 min with flow rate 5 µl/min. Quantities of immobilized peptides were 970 RU (resonance units, 1 RU corresponds 1 pg peptide) for rHCIQ2c1 and 460 RU for rHCIQ4c7. In all of the experiments, the flow cell 1 (Fc1) without the immobilized polypeptides was considered as the reference cell for the correction of the signal responses. HBS (HEPES buffered saline-NaCl): 0.15 M NaCl, 0.01 M HEPES, pH 7.4 (cat. no. BR-1003-69, GE Healthcare, USA) was used as the running buffer for the SPR assays. Protease solutions at concentrations from 1 nM to 5 μM were passed through measuring and control biosensor cells at 25 °C during 5 min with a flow rate 5 µl/min. Further complex breakdown was recorded during at most 10 min. After each cycle of SPR measurement, the sensing surface was regenerated by the injection of 50 mM NaOH for 0.5 min at a flow rate of 50 μl/min. Changes in Gibbs free energy (ΔG) at 25 °C were calculated by the following equation:1 ΔG=RTlnKD, where KD is the dissociation constant. Changes in enthalpy (ΔH) and entropic term (−TΔS) were calculated from the linear equation:2 ΔG=ΔH−TΔS, using the liner approximation of temperature dependence of ΔG (Van’t Hoff diagram).

cathepsin G = test: SPR interaction with cathepsin G; type: binding; settings: for SPR binding to cathepsin G (in words): peptide immobilized on CM4 chip
Method: as §1, §2

rKv1.1 = test: Two-electrode voltage clamp, rKv1.1 in X. laevis oocytes; type: cell-based; settings: 10 μM, 18–22 °C, n ≥ 3
Method: (§3) For the expression of the voltage-gated potassium channels (rKv1.1, rKv1.2, hKv1.3, rKv1.4, rKv1.5, rKv1.6, Shaker IR and hERG) in X. laevis oocytes, the linearized plasmids were transcribed using the T7 or SP6 mMESSAGE-mMACHINE transcription kit (Ambion, USA). The harvesting of stage V–VI oocytes from an anaesthetized female X. laevis frog was previously described. Oocytes were injected with 50 nl of cRNA at a concentration of 1 ng/nl using a micro-injector (Drummond Scientific, USA). The oocytes were incubated in a solution containing (in mM): NaCl, 96; KCl, 2; CaCl2, 1.8; MgCl2, 2; HEPES, 5 (pH 7.4), supplemented with 50 mg/l gentamycin sulfate.
(§4) Two-electrode voltage-clamp recordings were performed at room temperature (18–22 °C) using a Geneclamp 500 amplifier (Molecular Devices, USA) controlled by a pClamp data acquisition system (Axon Instruments, USA), as described in[47]. Whole cell currents from oocytes were recorded 1–4 days after injection. Bath solution composition was ND96 (in mM): NaCl, 96; KCl, 2; CaCl2, 1.8; MgCl2, 2 and HEPES, 5 (pH 7.4). Voltage and current electrodes were filled with 3 M KCl. The resistances of both electrodes were kept between 0.7 and 1.5 MΩ. […] All data were analysed using pClamp Clampfit 10.0 (Molecular Devices, Downingtown, PA, USA) and Origin 7.5 software (Originlab, Northampton, MA, USA).

pancreatic kallikrein = test: SPR interaction with pancreatic kallikrein; type: binding; settings: for SPR binding to kallikrein (in words): peptide immobilized on CM4 chip
Method: as §1, §2

α-chymotrypsin = test: Thermodynamic parameters of complexes with α-chymotrypsin; type: binding; settings: complex with α-chymotrypsin, SPR
Method: (§5) The magnitudes of free energy change (∆G) of the complexes differed slightly from the same complexes of HCRG1 and HCRG2 and were lower than for the InhVJ ones.
as §2

rKv1.5 = test: Two-electrode voltage clamp, rKv1.5 in X. laevis oocytes; type: cell-based; settings: 10 μM, 18–22 °C, n ≥ 3
Method: as §3, §4

trypsin [2] = test: Thermodynamic parameters of complexes with trypsin; type: binding; settings: complex with trypsin, SPR
Method: as §5
The study of the interaction of serine proteinases with rHCIQ2c1 and rHCIQ4c7 was performed on SPR biosensor Biacore 3000 (GE Healthcare, USA) running under the program “Biacore 3000 Control Software v.1.0”. The evaluation of data was carried out using “Biacore Evaluation v.4.1”. Peptides were covalent immobilized on carboxymethylated surface of the Biacore CM4 sensor chip (GE Healthcare, USA) activated by EDC/NHS (N-hydroxysuccinimide/1-ethyl-3-(3-dimethylaminopropyl)carbodiimide hydrochloride) mixture by the injection of peptide solution (100 µg/ml) in 10 mM sodium acetate (pH 5.5) during 10 min with flow rate 5 µl/min. Quantities of immobilized peptides were 970 RU (resonance units, 1 RU corresponds 1 pg peptide) for rHCIQ2c1 and 460 RU for rHCIQ4c7. In all of the experiments, the flow cell 1 (Fc1) without the immobilized polypeptides was considered as the reference cell for the correction of the signal responses. […] Further complex breakdown was recorded during at most 10 min. […] Changes in enthalpy (ΔH) and entropic term (−TΔS) were calculated from the linear equation:2 ΔG=ΔH−TΔS, using the liner approximation of temperature dependence of ΔG (Van’t Hoff diagram).

trypsin [3] = test: Trypsin inhibitory activity (BAPNA, Dixon); type: biochemical; settings: BAPNA 0.6 and 1.2 mM, Dixon method; trypsin 208 nM; peptide 0–26.6 µM (rHCIQ2c1), 0–24 µM (rHCIQ4c7); three parallel experiments; error limits 0.1–0.5%
Method: The trypsin inhibitory activity of HCIQ peptides was estimated according to the standard procedure using N-α-benzoyl-D,L-arginine p-nitroanilide (BAPNA) as a substrate. The trypsin inhibition constants of rHCIQ2c1 and rHCIQ4c7 were determined by the method of Dixon[74] using substrate (BAPNA) concentrations of 0.6 and 1.2 mM. The trypsin concentration in the reaction mixture was 208 nM. The range of peptide concentrations was 0–26.6 µM for rHCIQ2c1 and 0–24 µM for rHCIQ4c7. The constants (Ki) were calculated based on the results of three parallel experiments. Computational error limits were in the range of 0.1–0.5%.

[4] = trypsin, SPR Biacore 3000, peptide immobilized on CM4 chip, HBS pH 7.4, 25 °C
[5] = cathepsin G, SPR Biacore 3000, peptide immobilized on CM4 chip, HBS pH 7.4, 25 °C, protease 1 nM to 5 μM
[6] = kallikrein, SPR Biacore 3000, peptide immobilized on CM4 chip, HBS pH 7.4, 25 °C, protease 1 nM to 5 μM

| Substance | SPR binding to trypsin (in words) (trypsin [1]; SPR) | ka, association rate constant (trypsin [1]; [4]) | kd, dissociation rate constant (trypsin [1]; [4]) | Kd (trypsin [1]; [4]) | SPR binding to cathepsin G (in words) (cathepsin G) | Activity on Kv1.1 (rKv1.1) | SPR binding to kallikrein (in words) (pancreatic kallikrein) | Activity on Kv1.5 (rKv1.5) | also measured |
| --- | --- | --- | --- | --- | --- | --- | --- | --- | --- |
| rHCIQ2c1: recombinant Kunitz-peptide of Heteractis crispa, most prevalent isoform, mature peptide 58 aa, expressed in E. coli (IQGNICSEPKKVGRCRGSFPRFYFDSETGKCTPFIYGGCGGNGNNFETLHACRAICRA; ends and bridges not checked; cysteine pairing not given here) | specifically binds to all target proteinases | 20500 s/M | 0.00817 s⁻¹ | 0.251 nM | specifically binds to all target proteinases | neither 10 μM of rHCIQ2c1 nor rHCIQ4c7 exerted any activity on the Kv channels | specifically binds to all target proteinases | neither 10 μM of rHCIQ2c1 nor rHCIQ4c7 exerted any activity on the Kv channels | KA, association constant (cathepsin G; cathepsin G, SPR Biacore 3000, peptide immobilized on CM4 chip, HBS pH 7.4, 25 °C): 3.58e+09 M⁻¹; ka, association rate constant (cathepsin G; [5]): 1.29e+06 s/M; kd, dissociation rate constant (cathepsin G; [5]): 0.000359 s⁻¹; Kd (cathepsin G; cathepsin G, SPR Biacore 3000, peptide immobilized on CM4 chip, HBS pH 7.4, 25 °C, read-out: KD, dissociation constant): 0.279 nM; KA, association constant (pancreatic kallikrein; kallikrein, SPR Biacore 3000, peptide immobilized on CM4 chip, HBS pH 7.4, 25 °C): 2.04e+06 M⁻¹; ka, association rate constant (pancreatic kallikrein; [6]): 49400 s/M; kd, dissociation rate constant (pancreatic kallikrein; [6]): 0.00379 s⁻¹; T∆S, entropic term (α-chymotrypsin; 10–40 °С, Van't Hoff diagram): 15.12 kcal/mol; ∆H, enthalpy change (α-chymotrypsin; 10–40 °С, Van't Hoff diagram): 4.68 kcal/mol; ∆G, Gibbs energy change (α-chymotrypsin; 25 °C, ΔG=RTlnKD): –43.70 kJ/mol; ∆H, enthalpy change (trypsin [2]; 10–40 °С, Van't Hoff diagram): 17.28 kcal/mol; ∆G, Gibbs energy change (trypsin [2]; 25 °C, ΔG=RTlnKD): –54.70 kJ/mol |
| rHCIQ4c7: recombinant Kunitz-peptide of Heteractis crispa, isoform with the rare substitution Gly17Glu | bounds to trypsin and elastase only | 22500 s/M | 0.00466 s⁻¹ | 207 nM | bounds to trypsin and elastase only | neither 10 μM of rHCIQ2c1 nor rHCIQ4c7 exerted any activity on the Kv channels | bounds to trypsin and elastase only | neither 10 μM of rHCIQ2c1 nor rHCIQ4c7 exerted any activity on the Kv channels | KD with trypsin relative to rHCIQ2c1 (trypsin [1]; SPR, 25 °C): higher by three orders than for rHCIQ2c1; KA, association constant (trypsin [1]; [4]): 4.83e+06 M⁻¹; Ki (trypsin [3]): 190 nM |
